According to PubChem BioAssay AID1159563 (GlaxoSmithKline (GSK), 2015):
The source made the active and inactive calls. How the calls were made is not given here.

The molecules below were run on HepG2 cytotoxicity (assay: human hepatoma cell viability loss – cytotoxicity control (AID 1159563)).
`CC1=NN(C(=O)CCn2cnc([N+](=O)[O-])n2)C(O)(C(F)(F)F)C1` (configuration not stated) was tested, and the IC50 was > 100 µM (inactive).
`O=C(Nc1ccc(C(F)(F)F)cc1)NC1(C(=O)NCc2ccco2)CCCCC1` was tested, and the IC50 was > 100 µM (inactive).
With `N#CN1CC[C@@H](NC(=O)Nc2ccccc2Oc2ccccc2)C1` the IC50 was 40 µM.
`O=C1CN(Cc2ccco2)C2CS(=O)(=O)CC2N1c1ccc(Cl)cc1` (configuration not stated) was tested, and the IC50 was > 100 µM (inactive).
`Fc1ccc(OC2CC(NCc3cccc4cn[nH]c34)C2)cc1C(F)(F)F` (configuration not stated) was tested, and the IC50 was 25 µM.
Work on `CN(Cc1nc2c(C(=O)N3CCN(Cc4ccccc4)CC3)cccc2[nH]1)C1CCCc2cccnc21` (configuration not stated) yielded an IC50 of 13 µM.
For `O=S(=O)(NCC(c1cccnc1)N1CCN(c2ccccc2F)CC1)c1ccc(F)cc1` (configuration not stated), the IC50 was > 100 µM (inactive).
In the case of `CS(=O)(=O)c1cccc(CNC(=O)c2cncc(N3CCN(c4ccc(F)cc4)CC3)c2)c1`, the IC50 is reported as > 100 µM (inactive).
With `O=C(NCCNc1noc(-c2ccc([N+](=O)[O-])cc2)n1)c1ccc(Cl)cc1` the IC50 was > 100 µM (inactive).
With `CC(C)C[C@H](NC(=O)c1ccc(-c2ccccc2)o1)C(=O)NC1(C#N)CC1` the IC50 was > 100 µM (inactive).
With `CCC(=O)Nc1ccc(-c2nc3ccc(Cl)cc3[nH]2)cc1` the IC50 was > 100 µM (inactive).
`COc1ncc(-c2ccc3ncnc(N4CCOCC4)c3c2)cc1NS(C)(=O)=O` was tested, and the IC50 was > 100 µM (inactive).
With `c1ccc2[nH]c(-c3ccc(N4CCCC4)nc3)nc2c1` the IC50 was > 100 µM (inactive).
`Cc1ccnc(NS(=O)(=O)c2ccc(NC(=O)c3ccc([N+](=O)[O-])s3)cc2)n1` gave an IC50 of 16 µM.
In the case of `COc1ncc(-c2ccc3nccc(-c4ccncc4)c3c2)cc1NS(C)(=O)=O`, the IC50 is reported as > 100 µM (inactive).
For `Cc1cccc(NS(=O)(=O)c2ccc3c(c2)C(=O)c2cc(S(=O)(=O)Nc4cccc(C)c4C)ccc2-3)c1C`, the IC50 was > 100 µM (inactive).
For `Cc1cc(C)nc(N2CCC(N(Cc3cccnc3)C(=O)c3cccc(C#N)c3)CC2)n1`, the IC50 was > 100 µM (inactive).
`COCCn1c(-c2ccccc2)cnc1NCc1ccccc1OC` gave an IC50 of 20 µM.
For `Cn1c(CN2CCN(c3ncc(C(F)(F)F)cc3Cl)CC2)nc2ccncc21`, the IC50 was > 100 µM (inactive).
Molecule `COc1ccc(OC)c(NC(=O)c2ccc([N+](=O)[O-])o2)c1` has an IC50 of 20 µM.
For `C=CCN(Cc1cccs1)C(=O)CSc1nnc(-c2ccc3c(c2)OCO3)o1`, the IC50 was > 100 µM (inactive).
For `O=C(c1cccc(Nc2ncc(-c3ccc4c(c3)OCO4)cn2)c1)N1CCSC1`, the IC50 was 10 µM.
In the case of `Cc1ccc(CNC2CCN(C[C@@H]3Cn4c(=O)ccc5ccc(=O)n3c54)CC2)cc1F`, the IC50 is reported as > 100 µM (inactive).
Molecule `CC1CCCN(S(=O)(=O)c2ccc(C(=O)Nc3nc(-c4ccccn4)cs3)cc2)C1` (configuration not stated) has an IC50 of 40 µM.
For `COc1ccccc1-c1c(C)[nH]c2nc(N)nc(C)c12`, the IC50 was > 100 µM (inactive).
With `COc1ccc(S(=O)(=O)NC(C)C)cc1Nc1ncc(-c2cccc(F)c2)cn1` the IC50 was > 100 µM (inactive).
For `Cc1cccc(NS(=O)(=O)c2cnc3sc(C)cn3c2=O)c1`, the IC50 was > 100 µM (inactive).
`COc1ccc2ncc(=O)n(CCN3CC[C@H](NCc4ncc(Cl)c5[nH]ncc45)[C@H](O)C3)c2n1` was tested, and the IC50 was > 100 µM (inactive).
With `CC1CCCCN1C(=O)NCCc1coc(-c2ccc(F)cc2)n1` (configuration not stated) the IC50 was > 100 µM (inactive).
`CCOc1ccc(Nc2ccc(S(=O)(=O)N3CCN(C)CC3)cc2[N+](=O)[O-])cc1OCC` was tested, and the IC50 was > 100 µM (inactive).
For `Cc1[nH]c2ccccc2c(=O)c1Cc1c(C)[nH]c2ccccc2c1=O`, the IC50 was > 100 µM (inactive).
For `CN1CCC(N(C)c2nccc(N3CCN(C(=O)c4cccc(-c5cccnc5)c4)CC3)n2)CC1`, the IC50 was 40 µM.
With `COc1cc(C(C)C)c(S(C)(=O)=O)cc1C(=O)N1CCN(c2ccccc2Cl)CC1` the IC50 was > 100 µM (inactive).
`Oc1c(-c2n[nH]c(Cc3ccc(F)cc3)n2)ncc2cccnc12` showed an IC50 of 25 µM.
Molecule `Cc1nc2c(-c3n[nH]c(-c4ccccc4N)n3)cccn2c1C` has an IC50 of 16 µM.
In the case of `Cc1ccc(NC(=O)c2ccc([N+](=O)[O-])s2)cc1S(=O)(=O)N1CCOCC1`, the IC50 is reported as 16 µM.
In the case of `c1cncc(CN(Cc2ccco2)Cc2cn[nH]c2-c2cccs2)c1`, the IC50 is reported as > 100 µM (inactive).
